Activity calls are given as the source filed them.
Experiments:
[1] = target: Photoreceptor-specific nuclear receptor (Homo sapiens, UniProt Q9Y5X4); assay type: functional;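 note: potency for compounds that break the NR2E3 corepressor complex and count as activators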
[2] = target: Peroxisome proliferator-activated receptor gamma/Nuclear receptor corepressor 2 (Homo sapiens, UniProt P37231+Q9Y618); assay type: functional
NS3 = NS3 (Hepatitis C virus, UniProt A3EZJ3); assay: PubChem AID 2173; parameters: species or system Hepacivirus hominis
Estrogen receptor beta = Estrogen receptor beta (Homo sapiens, UniProt Q92731); assay: blockers of SRC-3 recruitment to ERβ – biochemical, ELISA, streptavidin-HRP readout, orthogonal assay, confirmation (AID 1060)
Large T antigen = Large T antigen (Simian virus 40, UniProt P03070); assay type: functional, Betapolyomavirus macacae;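 note: Confirmatory-stage PubChem screen for compounds that inhibit SV40 T antigen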
[3] = target: Induced myeloid leukemia cell differentiation protein Mcl-1 (Homo sapiens, UniProt Q07820); assay type: functional
[4] = target: Inward rectifier potassium channel 2 (Mus musculus, UniProt P35561); assay: Manual electrophysiological patch clamp assay for SAR compounds that inhibit/block inward-rectifying potassium ion channel Kir2.1. [Related pubchem assays: 1843 (Summary assay for Kir2.1 inhibitor assays.), 1672 (Primary HTS of 305616 compounds where 2592 were identified as active.)]; assay type: functional
[5] = Luminescence Cell-Based Dose Response HTS to Identify Activators of Luciferase Translation or Activity in H4 […] Cells. [Related pubchem assays: 1829 (Project Summary), 1814 (Primary HTS)]; assay type: functional
[6] = fluconazole-exposed Candida albicans growth modulators – fluorescence, retest, confirmation (AID 2467); assay type: functional, cell-based
[7] = target: T1, Heat shock factor protein 1 (Mus musculus, UniProt P38532); assay: decrease of HSF1-responsive luciferase luminescence – cell-based, NIH3T3, dose retest, confirmation (AID 2382); assay type: functional;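 note: NIH3T3 fibroblasts with HSF1-driven luciferase reporter stressed by proteasome inhibitor MG132; luminescence from HSF1-driven luciferase expression after 8 hours of MG132 stress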
T1 sequence (P38532 whole entry): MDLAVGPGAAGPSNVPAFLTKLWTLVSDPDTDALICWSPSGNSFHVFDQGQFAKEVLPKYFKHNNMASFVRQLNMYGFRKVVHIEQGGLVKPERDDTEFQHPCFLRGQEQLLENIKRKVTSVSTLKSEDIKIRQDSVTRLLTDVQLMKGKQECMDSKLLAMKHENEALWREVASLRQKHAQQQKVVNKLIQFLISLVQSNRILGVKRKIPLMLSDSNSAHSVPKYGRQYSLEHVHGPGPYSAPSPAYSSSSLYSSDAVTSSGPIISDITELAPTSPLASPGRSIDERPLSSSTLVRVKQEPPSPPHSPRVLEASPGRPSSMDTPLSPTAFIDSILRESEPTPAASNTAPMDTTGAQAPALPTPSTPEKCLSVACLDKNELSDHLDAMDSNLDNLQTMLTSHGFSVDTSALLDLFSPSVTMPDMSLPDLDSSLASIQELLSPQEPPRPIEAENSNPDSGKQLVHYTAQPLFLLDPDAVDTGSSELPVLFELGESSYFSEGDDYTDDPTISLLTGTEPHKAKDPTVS

[8] = NIH-3T3 fibroblast cytotoxicity, dose response, cytotoxicity control, cell-based, fluorescence, Alamar Blue, secondary assay (AID 2327); assay type: functional;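 note: NIH-3T3 mouse fibroblasts cultured with fluconazole at 8 µg/mL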
[9] = M. tuberculosis H37Rv growth inhibitors, H37Rv strain (AID 1626); assay type: functional
[10] = Luminescence Cell-Based Dose Confirmation HTS to Identify Activators of 5'UTR Stem-Loop Driven Alpha-Synuclein mRNA Translation in H4 Neuroglioblastoma Cells. [Related pubchem assays: 1829 (Project Summary), 1814 (Primary HTS)]; assay type: functional
HeLa = assay: Cytotoxicity counterscreen assay for transcriptional activators of heat shock protein 70 (Hsp70). [Related pubchem assays: 1203, 1252 ]; assay type: functional; conditions: Homo sapiens;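 note: cells exposed to compound for 16 hours before readout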
[11] = target: Peroxisome proliferator-activated receptor gamma/Nuclear receptor coactivator 3 (Homo sapiens, UniProt P37231); assay type: functional;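 note: agonist potency for raising coactivator recruitment to the receptor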
[12] = target: Peroxisome proliferator-activated receptor gamma/Nuclear receptor coactivator 2 (Homo sapiens, UniProt P37231); assay type: functional;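 note: agonist potency for raising coactivator recruitment to the receptor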
[13] = target: Peroxisome proliferator-activated receptor gamma/Nuclear receptor coactivator 1 (Homo sapiens, UniProt P37231); assay type: functional;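 note: agonist potency as compounds enhance coactivator SRC-1 recruitment to PPARgamma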
[14] = Luminescence Cell-Based Dose Response HTS to Identify Inhibitors of 5'UTR Stem-Loop Driven Prion Protein mRNA Translation in H4 Neuroglioblastoma Cells. [Related pubchem assays: 1827 (Project Summary), 1813 (Primary HTS)]; assay type: functional
[15] = alpha-synuclein stem-loop luciferase translation blockers – H4 neuroglioma cells, luminescence, confirmation (AID 1988); assay type: functional, cell-based
[16] = general cell-killing toxicity readout – plate reader, dry powder samples, cytotoxicity control for PAX8 inhibitor project, dose response (AID 743021); assay type: functional, cell-based
Paired box protein Pax-8 = Paired box protein Pax-8 (Homo sapiens, UniProt Q06710); assay: PAX8 transcriptional activity inhibition in RMG-I – RMG-I cells, luciferase, cherry-pick, dose response (AID 687027); assay type: functional, cell-based;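 note: luciferase reporter driven by Pax8 target thyroperoxidase promoter measured by SteadyGlo luminescence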
[17] = luciferase reporter signal suppression in cells – H4 neuroglioma cells, luminescence, dose response (AID 1990); assay type: functional, cell-based
[18] = Luminescence-based counterscreen assay for KLF5 inhibitors: dose response cell-based high throughput screening assay to identify cytotoxic compounds using the IEC-6 intestinal epithelial cell line. [Related pubchem assays: 1700 (Primary screen.), 1834 (Confirmation screen.), 1858 (Summary AID.), 1905 (Counterscreen.)]; assay type: functional
[19] = Counterscreen for IDE inhibitors: Luminescence-based cell-based high throughput dose response assay to identify compounds that are cytotoxic to HEK cells. [Related pubchem assays: 434962 (Primary screen (IDE inhibitors in singlicate)), 449730 (Counterscreen (Cytotoxicity in triplicate)), 435028 (Confirmation (IDE inhibitors in triplicate)) …; assay type: functional; conditions: HEK293
Insulin-degrading enzyme = target: T2, Insulin-degrading enzyme (Homo sapiens, UniProt P14735); assay: Dose Response: Fluorescence polarization-based cell-based high throughput dose response assay for inhibitors of insulin-degrading enzyme (IDE). [Related pubchem assays: 434962 (Primary screen (IDE inhibitors in singlicate)), 449730 (Counterscreen (Cytotoxicity in triplicate)), 435028 (Confirmation (IDE inhibitors in triplicate)), 434984 (Summary …; assay type: functional
T2 sequence (P14735 whole entry): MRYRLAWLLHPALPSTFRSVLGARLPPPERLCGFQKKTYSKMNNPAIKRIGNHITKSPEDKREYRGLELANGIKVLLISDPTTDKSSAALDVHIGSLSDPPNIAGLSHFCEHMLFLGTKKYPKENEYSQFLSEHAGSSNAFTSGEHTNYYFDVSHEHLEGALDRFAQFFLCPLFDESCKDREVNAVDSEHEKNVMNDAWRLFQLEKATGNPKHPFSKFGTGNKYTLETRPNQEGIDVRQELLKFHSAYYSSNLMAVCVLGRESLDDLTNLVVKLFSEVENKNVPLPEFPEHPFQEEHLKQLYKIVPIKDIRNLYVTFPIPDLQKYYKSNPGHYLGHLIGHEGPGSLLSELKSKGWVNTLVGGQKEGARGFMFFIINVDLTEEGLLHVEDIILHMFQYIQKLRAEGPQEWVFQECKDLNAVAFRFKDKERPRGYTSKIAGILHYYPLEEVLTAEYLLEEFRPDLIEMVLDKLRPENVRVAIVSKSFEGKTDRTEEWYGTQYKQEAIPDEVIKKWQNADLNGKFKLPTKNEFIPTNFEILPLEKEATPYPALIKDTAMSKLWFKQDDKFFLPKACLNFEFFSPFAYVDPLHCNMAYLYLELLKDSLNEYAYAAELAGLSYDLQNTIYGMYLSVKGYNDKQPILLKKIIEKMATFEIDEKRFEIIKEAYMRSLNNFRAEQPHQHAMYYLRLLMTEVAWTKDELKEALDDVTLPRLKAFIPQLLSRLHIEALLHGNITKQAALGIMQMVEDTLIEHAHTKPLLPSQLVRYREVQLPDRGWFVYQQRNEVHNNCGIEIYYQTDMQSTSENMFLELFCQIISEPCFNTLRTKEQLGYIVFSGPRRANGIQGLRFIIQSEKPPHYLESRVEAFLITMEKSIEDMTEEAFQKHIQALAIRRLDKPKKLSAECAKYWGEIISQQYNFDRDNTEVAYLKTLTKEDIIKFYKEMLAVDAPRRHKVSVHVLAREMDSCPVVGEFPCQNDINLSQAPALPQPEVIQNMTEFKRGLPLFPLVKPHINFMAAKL

Aminopeptidase N = target: T3, Aminopeptidase N (Plasmodium falciparum FcB1/Columbia, UniProt O96935); assay: malaria alanyl aminopeptidase activity blockers – biochemical, fluorogenic H-Leu-NHMec substrate, 1536-well (AID 1445); parameters: species or system Plasmodium falciparum 3D7, 3D7
T3 sequence (O96935 whole entry): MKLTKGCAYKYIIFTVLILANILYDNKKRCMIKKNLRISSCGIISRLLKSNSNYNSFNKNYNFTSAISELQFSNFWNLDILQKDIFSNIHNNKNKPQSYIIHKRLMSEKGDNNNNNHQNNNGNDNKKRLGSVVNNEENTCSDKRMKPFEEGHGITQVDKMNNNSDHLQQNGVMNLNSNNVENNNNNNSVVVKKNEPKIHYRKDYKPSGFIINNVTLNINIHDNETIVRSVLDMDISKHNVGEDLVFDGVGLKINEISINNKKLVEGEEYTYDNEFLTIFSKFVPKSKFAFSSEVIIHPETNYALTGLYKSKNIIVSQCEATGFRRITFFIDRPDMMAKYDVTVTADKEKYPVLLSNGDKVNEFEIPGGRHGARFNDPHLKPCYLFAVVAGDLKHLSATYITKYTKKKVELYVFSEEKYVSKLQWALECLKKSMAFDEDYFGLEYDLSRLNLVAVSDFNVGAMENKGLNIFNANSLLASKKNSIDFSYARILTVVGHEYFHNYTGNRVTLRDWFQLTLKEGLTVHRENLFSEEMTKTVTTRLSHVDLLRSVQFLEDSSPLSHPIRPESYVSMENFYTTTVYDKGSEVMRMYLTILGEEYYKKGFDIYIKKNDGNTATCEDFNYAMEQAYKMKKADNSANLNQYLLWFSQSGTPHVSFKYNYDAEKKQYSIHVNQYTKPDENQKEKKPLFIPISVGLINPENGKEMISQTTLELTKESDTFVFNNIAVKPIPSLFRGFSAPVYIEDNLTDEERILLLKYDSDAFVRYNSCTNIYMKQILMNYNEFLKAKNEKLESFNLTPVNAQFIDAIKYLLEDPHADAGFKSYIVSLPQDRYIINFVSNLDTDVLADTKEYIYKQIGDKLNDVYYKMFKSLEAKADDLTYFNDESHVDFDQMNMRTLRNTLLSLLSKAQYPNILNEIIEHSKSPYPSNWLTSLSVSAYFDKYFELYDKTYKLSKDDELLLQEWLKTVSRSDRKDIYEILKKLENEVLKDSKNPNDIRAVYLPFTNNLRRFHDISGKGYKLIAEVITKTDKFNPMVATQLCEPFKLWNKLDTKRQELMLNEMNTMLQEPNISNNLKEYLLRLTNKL

[20] = CCR5-tropic HIV-1 fusion blockers – cell-based, CCR5-tropic Env, dose response (AID 2279); assay type: functional
[21] = target: T4, Calpain-2 catalytic subunit (Sus scrofa, UniProt P43367); assay: m-calpain protease blockers, concentration series – biochemical, fluorogenic peptide substrate, dose response (AID 1420); assay type: functional
T4 sequence (P43367 whole entry): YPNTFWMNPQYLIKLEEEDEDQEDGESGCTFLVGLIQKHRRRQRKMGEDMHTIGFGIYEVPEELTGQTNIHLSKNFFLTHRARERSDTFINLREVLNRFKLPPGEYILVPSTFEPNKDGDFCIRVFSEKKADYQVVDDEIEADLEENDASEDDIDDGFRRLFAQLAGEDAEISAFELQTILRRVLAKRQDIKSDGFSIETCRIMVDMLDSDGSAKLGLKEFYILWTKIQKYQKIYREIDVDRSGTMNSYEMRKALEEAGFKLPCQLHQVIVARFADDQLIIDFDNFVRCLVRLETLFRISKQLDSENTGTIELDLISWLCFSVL

Chain of Induced myeloid leukemia cell differentiation protein Mcl-1 (Q07820 whole entry): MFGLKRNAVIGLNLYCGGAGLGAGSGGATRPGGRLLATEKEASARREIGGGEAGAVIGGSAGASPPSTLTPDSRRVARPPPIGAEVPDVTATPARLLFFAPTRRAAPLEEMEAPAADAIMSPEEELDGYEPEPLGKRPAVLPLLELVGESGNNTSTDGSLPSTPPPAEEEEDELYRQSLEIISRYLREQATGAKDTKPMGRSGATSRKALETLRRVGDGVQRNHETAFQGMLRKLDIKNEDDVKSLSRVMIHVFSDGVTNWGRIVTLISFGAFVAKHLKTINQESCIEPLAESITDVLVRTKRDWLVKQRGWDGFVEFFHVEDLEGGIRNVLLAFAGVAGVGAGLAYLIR
Chain of Paired box protein Pax-8 (Q06710 whole entry): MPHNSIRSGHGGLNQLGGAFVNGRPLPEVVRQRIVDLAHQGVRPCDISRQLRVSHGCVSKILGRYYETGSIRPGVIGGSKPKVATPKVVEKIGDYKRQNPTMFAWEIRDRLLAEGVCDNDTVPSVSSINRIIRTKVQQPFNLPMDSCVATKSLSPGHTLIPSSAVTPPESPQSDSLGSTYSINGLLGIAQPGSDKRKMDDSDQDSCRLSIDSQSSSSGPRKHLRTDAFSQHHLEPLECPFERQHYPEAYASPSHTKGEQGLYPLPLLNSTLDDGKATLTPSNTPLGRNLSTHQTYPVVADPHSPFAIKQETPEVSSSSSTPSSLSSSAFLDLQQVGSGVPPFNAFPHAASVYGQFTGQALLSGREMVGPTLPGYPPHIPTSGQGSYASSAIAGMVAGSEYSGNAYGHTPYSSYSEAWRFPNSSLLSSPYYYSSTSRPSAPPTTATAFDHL
Chain of Peroxisome proliferator-activated receptor gamma/Nuclear receptor corepressor 2 (P37231 whole entry): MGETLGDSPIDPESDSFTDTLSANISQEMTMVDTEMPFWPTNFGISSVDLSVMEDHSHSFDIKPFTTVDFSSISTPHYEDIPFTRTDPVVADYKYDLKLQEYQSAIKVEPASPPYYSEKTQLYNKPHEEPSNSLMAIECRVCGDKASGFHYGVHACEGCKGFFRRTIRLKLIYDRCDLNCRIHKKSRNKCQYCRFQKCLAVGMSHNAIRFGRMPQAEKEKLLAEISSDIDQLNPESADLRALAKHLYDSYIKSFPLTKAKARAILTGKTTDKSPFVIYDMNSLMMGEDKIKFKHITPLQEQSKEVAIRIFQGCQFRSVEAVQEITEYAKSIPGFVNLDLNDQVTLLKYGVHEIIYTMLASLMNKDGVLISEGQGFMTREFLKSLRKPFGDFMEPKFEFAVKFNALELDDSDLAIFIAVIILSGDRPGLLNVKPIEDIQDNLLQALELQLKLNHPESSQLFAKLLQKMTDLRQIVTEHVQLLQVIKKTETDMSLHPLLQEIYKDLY
Chain of Peroxisome proliferator-activated receptor gamma/Nuclear receptor corepressor 2 (Q9Y618 whole entry): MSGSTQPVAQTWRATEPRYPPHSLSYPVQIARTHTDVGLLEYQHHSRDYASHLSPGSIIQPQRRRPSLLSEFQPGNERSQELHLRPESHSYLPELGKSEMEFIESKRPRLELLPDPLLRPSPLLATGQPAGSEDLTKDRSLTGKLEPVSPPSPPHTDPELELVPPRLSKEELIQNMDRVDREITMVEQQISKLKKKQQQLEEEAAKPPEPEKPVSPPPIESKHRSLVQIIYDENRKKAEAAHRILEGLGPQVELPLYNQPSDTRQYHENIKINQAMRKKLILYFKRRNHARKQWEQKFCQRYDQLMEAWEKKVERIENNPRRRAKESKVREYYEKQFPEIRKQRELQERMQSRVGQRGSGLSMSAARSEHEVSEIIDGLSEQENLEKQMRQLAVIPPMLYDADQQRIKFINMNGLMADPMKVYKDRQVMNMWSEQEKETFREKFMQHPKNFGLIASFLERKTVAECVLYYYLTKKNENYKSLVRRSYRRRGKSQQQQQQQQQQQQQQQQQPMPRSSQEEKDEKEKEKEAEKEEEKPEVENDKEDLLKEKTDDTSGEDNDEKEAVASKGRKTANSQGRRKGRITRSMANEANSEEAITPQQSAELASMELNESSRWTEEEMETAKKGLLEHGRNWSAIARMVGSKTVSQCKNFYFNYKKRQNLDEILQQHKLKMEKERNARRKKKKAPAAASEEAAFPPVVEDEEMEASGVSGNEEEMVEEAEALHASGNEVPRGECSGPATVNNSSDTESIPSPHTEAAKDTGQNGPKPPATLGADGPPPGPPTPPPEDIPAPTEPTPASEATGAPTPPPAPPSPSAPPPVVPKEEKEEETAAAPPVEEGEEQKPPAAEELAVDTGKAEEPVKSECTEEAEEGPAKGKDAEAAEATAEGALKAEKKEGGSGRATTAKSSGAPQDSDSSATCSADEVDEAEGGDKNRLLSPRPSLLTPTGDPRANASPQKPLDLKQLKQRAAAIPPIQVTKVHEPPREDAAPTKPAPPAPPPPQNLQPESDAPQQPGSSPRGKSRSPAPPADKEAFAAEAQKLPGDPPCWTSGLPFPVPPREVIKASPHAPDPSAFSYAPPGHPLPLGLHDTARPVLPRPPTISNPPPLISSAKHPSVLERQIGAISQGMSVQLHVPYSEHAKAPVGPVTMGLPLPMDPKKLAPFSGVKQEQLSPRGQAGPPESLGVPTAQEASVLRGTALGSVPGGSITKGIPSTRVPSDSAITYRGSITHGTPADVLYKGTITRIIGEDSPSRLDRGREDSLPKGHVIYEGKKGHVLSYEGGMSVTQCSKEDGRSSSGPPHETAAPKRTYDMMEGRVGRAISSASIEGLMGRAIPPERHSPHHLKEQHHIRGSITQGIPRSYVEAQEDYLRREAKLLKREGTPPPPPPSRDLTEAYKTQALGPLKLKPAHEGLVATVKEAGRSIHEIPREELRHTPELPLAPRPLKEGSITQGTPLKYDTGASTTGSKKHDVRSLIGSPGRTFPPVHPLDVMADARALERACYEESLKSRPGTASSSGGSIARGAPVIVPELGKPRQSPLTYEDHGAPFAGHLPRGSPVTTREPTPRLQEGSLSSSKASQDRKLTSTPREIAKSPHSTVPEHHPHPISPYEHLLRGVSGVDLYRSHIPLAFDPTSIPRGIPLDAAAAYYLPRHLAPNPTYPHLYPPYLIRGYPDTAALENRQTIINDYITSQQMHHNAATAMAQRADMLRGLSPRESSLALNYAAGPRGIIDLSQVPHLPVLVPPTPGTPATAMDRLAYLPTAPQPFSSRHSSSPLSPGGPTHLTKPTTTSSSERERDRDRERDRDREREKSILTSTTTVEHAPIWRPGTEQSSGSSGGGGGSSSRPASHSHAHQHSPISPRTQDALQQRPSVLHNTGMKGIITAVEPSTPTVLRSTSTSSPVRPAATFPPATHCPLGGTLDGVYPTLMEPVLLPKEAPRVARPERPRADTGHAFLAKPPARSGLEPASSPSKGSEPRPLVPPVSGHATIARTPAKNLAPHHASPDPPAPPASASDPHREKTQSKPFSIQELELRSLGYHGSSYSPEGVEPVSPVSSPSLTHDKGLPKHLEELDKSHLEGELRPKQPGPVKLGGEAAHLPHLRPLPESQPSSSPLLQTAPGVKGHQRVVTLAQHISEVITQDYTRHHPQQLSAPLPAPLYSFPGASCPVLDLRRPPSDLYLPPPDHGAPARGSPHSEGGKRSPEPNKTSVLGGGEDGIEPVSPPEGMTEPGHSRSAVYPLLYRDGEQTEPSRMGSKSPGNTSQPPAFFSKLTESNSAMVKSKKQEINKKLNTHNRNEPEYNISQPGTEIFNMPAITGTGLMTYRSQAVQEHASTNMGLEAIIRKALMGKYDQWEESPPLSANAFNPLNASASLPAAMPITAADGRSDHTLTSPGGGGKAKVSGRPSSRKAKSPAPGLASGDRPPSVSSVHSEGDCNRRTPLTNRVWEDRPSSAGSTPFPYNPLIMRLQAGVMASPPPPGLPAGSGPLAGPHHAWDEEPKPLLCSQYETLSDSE
Chain of Estrogen receptor beta (Q92731 whole entry): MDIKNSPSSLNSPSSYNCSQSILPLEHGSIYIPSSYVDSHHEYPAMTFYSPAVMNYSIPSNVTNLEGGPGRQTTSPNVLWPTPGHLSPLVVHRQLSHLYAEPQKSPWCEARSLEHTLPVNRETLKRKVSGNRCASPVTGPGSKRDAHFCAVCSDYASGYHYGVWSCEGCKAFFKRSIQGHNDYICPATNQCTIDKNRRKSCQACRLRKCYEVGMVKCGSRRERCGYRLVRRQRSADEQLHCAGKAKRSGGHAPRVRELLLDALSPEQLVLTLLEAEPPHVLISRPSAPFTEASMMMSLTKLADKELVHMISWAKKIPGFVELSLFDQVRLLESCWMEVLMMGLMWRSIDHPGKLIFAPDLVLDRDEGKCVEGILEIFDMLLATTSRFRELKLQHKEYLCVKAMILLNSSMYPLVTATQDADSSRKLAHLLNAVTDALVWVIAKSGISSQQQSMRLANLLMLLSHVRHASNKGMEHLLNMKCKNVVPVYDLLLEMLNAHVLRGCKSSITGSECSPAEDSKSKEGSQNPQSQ
Chain of Inward rectifier potassium channel 2 (P35561 whole entry): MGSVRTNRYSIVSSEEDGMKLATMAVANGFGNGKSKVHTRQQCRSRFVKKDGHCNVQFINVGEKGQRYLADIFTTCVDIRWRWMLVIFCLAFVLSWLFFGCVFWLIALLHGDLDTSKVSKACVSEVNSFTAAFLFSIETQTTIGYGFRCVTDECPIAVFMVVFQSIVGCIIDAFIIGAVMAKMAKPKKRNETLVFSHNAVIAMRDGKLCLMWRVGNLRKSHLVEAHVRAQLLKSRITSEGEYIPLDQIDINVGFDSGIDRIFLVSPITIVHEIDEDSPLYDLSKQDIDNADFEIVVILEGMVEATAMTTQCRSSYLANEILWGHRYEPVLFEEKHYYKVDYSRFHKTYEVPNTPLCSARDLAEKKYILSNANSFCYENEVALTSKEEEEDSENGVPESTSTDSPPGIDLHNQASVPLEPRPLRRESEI

For Cc1ccc(C(=O)C2=C(O)C(=O)N(Cc3cccnc3)C2c2cccc(Oc3ccccc3)c2)o1 (centres undefined), the IC50 [1] was 5.73 µM (active), the IC50 [2] was 2.46 µM (active) and the IC50 (NS3) was 6.11 µM (active).
With Cc1cc(-c2nc3c4c5c(sc4nc(O)n3n2)CCC5)c(C)o1 the IC50 (Estrogen receptor beta) was 18.6 µM (not active), the IC50 (Large T antigen) was 24.8 µM (active) and the IC50 [3] was 3.05 µM (active).
With COc1ccc(CNCc2ccccc2C)cc1 the IC50 [4] was 9.08 µM (active).
For COc1cc(/C=N/N=C(/Nc2ccc(C)cc2)c2nc3ccccc3s2)ccc1O, the EC50 [5] was 0.154 µM (active), the EC50 [6] was > 38 µM (not active) and the EC50 [7] was < 0.16 µM (active). For the same compound, the EC50 [8] was > 150 µM (inactive), the IC50 [9] was > 100 µM (active) and the EC50 [10] was 17.6 µM (active).
With CN(C)/C=C1/NC(=S)NC1=O the CC50 (HeLa) was > 99 µM (not active).
In the case of O=C(Nc1nc(-c2ccccc2)nc2ccccc12)c1ccc(F)cc1, the EC50 [11] is reported as 23 µM (not active), the EC50 [12] is reported as 13.5 µM (not active) and the EC50 [13] is reported as 17.2 µM (not active).
With C/C(=N\NC(=O)c1[nH]nc2c1CCC2)c1cccs1 the EC50 [14] was 4.49 µM (active), the EC50 [15] was 2.95 µM (active) and the AC50 [16] was 8.65 µM (active). The AC50 (Paired box protein Pax-8) was 5.19 µM (active), the EC50 [17] was 4.85 µM (active) and the IC50 [18] was 10.1 µM (not active).
For CC(Oc1ccc2c3c(c(=O)oc2c1)CCCC3)C(=O)NCc1ccncc1 (centres undefined), the IC50 [19] was 36.4 µM (not active) and the IC50 (Insulin-degrading enzyme) was > 55.9 µM (not active).
For COc1cc(/C=C2\SC(=S)NC2=O)ccc1OS(=O)(=O)c1ccccc1, the IC50 (Aminopeptidase N) was 38.6 µM (active), the IC50 [20] was 16.5 µM (active) and the IC50 [3] was 2.79 µM (active). The IC50 [21] was 11.1 µM (not active).
